Tested on: 324938-238-R-J1-PDC complex spheroids viability
Test: Anticancer human tumor 324938-238-R-J1-PDC patient-derived bladder carcinoma cell line growth inhibition [CLK]
Conditions: for IC50: curve of first compound; for viability, T/C: stronger effect = lower value
Outline: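 Multi-cell-type spheroids combined patient-derived tumor cells with HUVEC endothelial cells and human mesenchymal stem cells. Paired agents were dosed in half-log steps down from about clinical Cmax, or from 10 microM where Cmax was unknown.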
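Also: viability read after seven days of drug exposure.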
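For viability, T/C in this document: 100% = DMSO vehicle control wells.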

In the case of `CC(C)CC(NC(=O)C(Cc1ccccc1)NC(=O)c1cnccn1)B(O)O` (configuration not stated) + CN1CCN(c2cc(C(=O)Nc3cc4cc(-c5cnn(C)c5)ccc4cn3)ccn2)CC1, the IC50 (second compound 0.0316 µM) is reported as 1.29 nM, the IC50 (second compound 0.1 µM) is reported as less than 0.949 nM and the IC50 (second compound 0.316 µM) is reported as less than 0.949 nM. The IC50 (second compound 1 µM) was less than 0.949 nM, the IC50 (second compound 3.16 µM) was less than 0.949 nM and the IC50 (second compound 10 µM) was less than 0.949 nM. For the same compound, the viability, T/C (second compound 0.0316 µM, first compound 0.000949 µM) was 67%, the viability, T/C (second compound 0.0316 µM, first compound 0.003 µM) was 2.89% and the viability, T/C (second compound 0.0316 µM, first compound 0.00949 µM) was 0.33%. The viability, T/C (second compound 0.0316 µM, first compound 0.03 µM) was 0.33%, the viability, T/C (second compound 0.0316 µM, first compound 0.0949 µM) was 0.22% and the viability, T/C (second compound 0.0316 µM, first compound 0.3 µM) was 0.18%. The viability, T/C (second compound 0.1 µM, first compound 0.000949 µM) was 46.9%, the viability, T/C (second compound 0.1 µM, first compound 0.003 µM) was 2.21% and the viability, T/C (second compound 0.1 µM, first compound 0.00949 µM) was 0.38%. The viability, T/C (second compound 0.1 µM, first compound 0.03 µM) was 0.33%, the viability, T/C (second compound 0.1 µM, first compound 0.0949 µM) was 0.18% and the viability, T/C (second compound 0.1 µM, first compound 0.3 µM) was 0.32%. For the same compound, the viability, T/C (second compound 0.316 µM, first compound 0.000949 µM) was 11.1%, the viability, T/C (second compound 0.316 µM, first compound 0.003 µM) was 0.71% and the viability, T/C (second compound 0.316 µM, first compound 0.00949 µM) was 0.31%. It also gave a viability, T/C (second compound 0.316 µM, first compound 0.03 µM) of 0.2%, a viability, T/C (second compound 0.316 µM, first compound 0.0949 µM) of 0.15% and a viability, T/C (second compound 0.316 µM, first compound 0.3 µM) of 0.17%. The viability, T/C (second compound 1 µM, first compound 0.000949 µM) was 0.28%, the viability, T/C (second compound 1 µM, first compound 0.003 µM) was 0.27% and the viability, T/C (second compound 1 µM, first compound 0.00949 µM) was 0.18%. It also gave a viability, T/C (second compound 1 µM, first compound 0.03 µM) of 0.16%, a viability, T/C (second compound 1 µM, first compound 0.0949 µM) of 0.44% and a viability, T/C (second compound 1 µM, first compound 0.3 µM) of 0.22%. The viability, T/C (second compound 3.16 µM, first compound 0.000949 µM) was 0.23%, the viability, T/C (second compound 3.16 µM, first compound 0.003 µM) was 0.24% and the viability, T/C (second compound 3.16 µM, first compound 0.00949 µM) was 0.24%. For the same compound, the viability, T/C (second compound 3.16 µM, first compound 0.03 µM) was 0.1%, the viability, T/C (second compound 3.16 µM, first compound 0.0949 µM) was 0.18% and the viability, T/C (second compound 3.16 µM, first compound 0.3 µM) was 0.17%. The viability, T/C (second compound 10 µM, first compound 0.000949 µM) was 0.71%, the viability, T/C (second compound 10 µM, first compound 0.003 µM) was 0.21% and the viability, T/C (second compound 10 µM, first compound 0.00949 µM) was 0.18%. The viability, T/C (second compound 10 µM, first compound 0.03 µM) was 0.22%, the viability, T/C (second compound 10 µM, first compound 0.0949 µM) was 0.26% and the viability, T/C (second compound 10 µM, first compound 0.3 µM) was 0.25%.
